Several values for one entry are separate records, joined by “and”; a condition that tells them apart may be missing. Equal entries are not always repeated. Inconclusive results and toxic doses are left out.
Test system: CD2F1 mice, L1210 leukemia ip, survival T/C
Experiment: NCI In Vivo Anticancer Drug Screen. Data for tumor model L1210 Leukemia (intraperitoneal) in CD2F1 (CDF1) mice
Conditions: higher = longer survival
In short: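 Implant tumor; dose compound or vehicle; measure endpoint in both groups; report treated divided by control.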

[1] = endpoint: mean survival time, dose: 100.0 mg/kg/injection, schedule: Q01DX001 (ip), vehicle: saline with Tween-80
[2] = endpoint: mean survival time, dose: 200.0 mg/kg/injection, schedule: Q01DX001 (ip), vehicle: saline with Tween-80
[3] = endpoint: mean survival time, dose: 400.0 mg/kg/injection, schedule: Q01DX001 (ip), vehicle: saline with Tween-80
[4] = endpoint: mean survival time, dose: 100.0 mg/kg/injection, schedule: Q01DX001 (ip), vehicle: saline
[5] = endpoint: mean survival time, dose: 200.0 mg/kg/injection, schedule: Q01DX001 (ip), vehicle: saline
[6] = endpoint: mean survival time, dose: 400.0 mg/kg/injection, schedule: Q01DX001 (ip), vehicle: saline
[7] = endpoint: mean survival time, dose: 50.0 mg/kg/injection, schedule: Q01DX009 (ip), vehicle: saline with Tween-80
[8] = endpoint: mean survival time, dose: 100.0 mg/kg/injection, schedule: Q01DX009 (ip), vehicle: saline with Tween-80
[9] = endpoint: mean survival time, dose: 200.0 mg/kg/injection, schedule: Q04DX003 (ip), vehicle: saline with Tween-80

Q: For `O=C1C(=O)c2ccccc2C(O)=C1CNCCO`, which T/C [1] is on record?
A: 97 % of control

Q: And the T/C [2]?
A: 94 % of control

Q: What about the T/C [3] of the same compound?
A: 94 % of control

Q: Which results are given for `Cc1cc(NCCCCCCCNc2cc(C)nc3cc(N)ccc23)c2ccc(N)cc2n1`?
A: T/C (endpoint: mean survival time, dose: 0.78 mg/kg/injection, schedule: Q01DX009 (ip), vehicle: saline with Tween-80): 123 % of control and 110 % of control; T/C (endpoint: mean survival time, dose: 1.56 mg/kg/injection, schedule: Q01DX009 (ip), vehicle: saline with Tween-80): 121 % of control and 123 % of control; T/C (endpoint: mean survival time, dose: 6.25 mg/kg/injection, schedule: Q01DX009 (ip), vehicle: saline with Tween-80): 153 % of control; T/C (endpoint: mean survival time, dose: 12.5 mg/kg/injection, schedule: Q01DX009 (ip), vehicle: saline with Tween-80): 157 % of control and 183 % of control; T/C (endpoint: mean survival time, dose: 25.0 mg/kg/injection, schedule: Q01DX009 (ip), vehicle: saline with Tween-80): 104 % of control; T/C (endpoint: median survival time, dose: 0.78 mg/kg/injection, schedule: Q01DX009 (ip), vehicle: distilled water + Tween-80): 119 % of control; T/C (endpoint: median survival time, dose: 0.78 mg/kg/injection, schedule: Q01DX009 (ip), vehicle: other): 113 % of control; T/C (endpoint: median survival time, dose: 1.56 mg/kg/injection, schedule: Q01DX009 (ip), vehicle: distilled water + Tween-80): 121 % of control; T/C (endpoint: median survival time, dose: 1.56 mg/kg/injection, schedule: Q01DX009 (ip), vehicle: other): 120 % of control; T/C (endpoint: median survival time, dose: 6.25 mg/kg/injection, schedule: Q01DX009 (ip), vehicle: other): 150 % of control; T/C (endpoint: median survival time, dose: 6.25 mg/kg/injection, schedule: Q01DX009 (ip), vehicle: water): 157 % of control; T/C (endpoint: median survival time, dose: 12.5 mg/kg/injection, schedule: Q01DX009 (ip), vehicle: distilled water + Tween-80): 167 % of control; T/C (endpoint: median survival time, dose: 12.5 mg/kg/injection, schedule: Q01DX009 (ip), vehicle: other): 170 % of control; T/C (endpoint: median survival time, dose: 12.5 mg/kg/injection, schedule: Q01DX009 (ip), vehicle: water): 180 % of control

Q: For `COC1OCC(C(C)=O)C(O)C1O` (stereo not drawn), which T/C [4] is on record?
A: 101 % of control

Q: What about the T/C [5] of the same compound?
A: 96 % of control

Q: What about the T/C [6] of the same compound?
A: 95 % of control

Q: Which T/C (endpoint: mean survival time, dose: 50.0 mg/kg/injection, schedule: Q01DX001 (ip), vehicle: saline) does the source give for `O=C1OCC2C(=O)OCC12` (stereo not drawn) here?
A: 107 % of control

Q: What about the T/C [4] of the same compound?
A: 101 % of control

Q: What about the T/C [5] of the same compound?
A: 107 % of control

Q: What about the T/C [6] of the same compound?
A: 109 % of control

Q: Which results are given for `N#CC(C(N)=O)C1CC(=O)Oc2ccccc21` (stereo not drawn)?
A: T/C (endpoint: mean survival time, dose: 100.0 mg/kg/injection, schedule: Q04DX003 (ip), vehicle: Klucel (hydroxypropylcellulose) (HPC)): 91 % of control; T/C (endpoint: mean survival time, dose: 200.0 mg/kg/injection, schedule: Q04DX003 (ip), vehicle: Klucel (hydroxypropylcellulose) (HPC)): 112 % of control

Q: How did the T/C [7] turn out when `Cc1[nH]ccc2c(C)c3nc4ccccc4c3cc12` was run?
A: 152 % of control

Q: What about the T/C [8] of the same compound?
A: 117 % of control

Q: And the T/C [9]?
A: 96 % of control

Q: Which T/C (endpoint: mean survival time, dose: 12.5 mg/kg/injection, schedule: Q04DX002 (ip), vehicle: saline) does the source give for `COP1(=O)OCC(C(C)(C)C)CO1` (stereo not drawn) here?
A: 103 % of control

Q: What about the T/C (endpoint: mean survival time, dose: 25.0 mg/kg/injection, schedule: Q04DX002 (ip), vehicle: saline) of the same compound?
A: 88 % of control

Q: How did the T/C [1] turn out when `Oc1ccccc1/C=N/c1nc(-c2ccccc2)cs1` was run?
A: 86 % of control

Q: What about the T/C [2] of the same compound?
A: 107 % of control

Q: What about the T/C [3] of the same compound?
A: 93 % of control

Q: `CC(C)c1cccc(O)c(=O)c1` was tested. Which T/C [7] did it give?
A: 102 % of control

Q: What about the T/C [8] of the same compound?
A: 100 % of control

Q: How did the T/C [8] turn out when `COC(=O)c1cccc2c1OCO2` was run?
A: 101 % of control

Q: What about the T/C (endpoint: mean survival time, dose: 100.0 mg/kg/injection, schedule: Q04DX003 (ip), vehicle: saline with Tween-80) of the same compound?
A: 100 % of control

Q: And the T/C (endpoint: mean survival time, dose: 200.0 mg/kg/injection, schedule: Q01DX009 (ip), vehicle: saline with Tween-80)?
A: 101 % of control

Q: What about the T/C [9] of the same compound?
A: 100 % of control

Q: What about the T/C (endpoint: mean survival time, dose: 400.0 mg/kg/injection, schedule: Q01DX009 (ip), vehicle: saline with Tween-80) of the same compound?
A: 101 % of control

Q: And the T/C (endpoint: mean survival time, dose: 400.0 mg/kg/injection, schedule: Q04DX003 (ip), vehicle: saline with Tween-80)?
A: 103 % of control

Q: How did the T/C (endpoint: mean survival time, dose: 25.0 mg/kg/injection, schedule: Q04DX003 (ip), vehicle: saline) turn out when `NC(=O)C12CCCCC1CCC(=O)C2` (stereo not drawn) was run?
A: 93 % of control

Q: What about the T/C (endpoint: mean survival time, dose: 50.0 mg/kg/injection, schedule: Q04DX003 (ip), vehicle: saline) of the same compound?
A: 96 % of control

Q: What about the T/C (endpoint: mean survival time, dose: 100.0 mg/kg/injection, schedule: Q04DX003 (ip), vehicle: saline) of the same compound?
A: 90 % of control

Q: How did the T/C (endpoint: mean survival time, dose: 37.5 mg/kg/injection, schedule: Q01DX009 (ip), vehicle: saline) turn out when `COc1ccccc1/C=C\C(=O)C1COCN1` (stereo not drawn) was run?
A: 98 % of control

Q: And the T/C (endpoint: mean survival time, dose: 75.0 mg/kg/injection, schedule: Q01DX009 (ip), vehicle: saline)?
A: 98 % of control

Q: What about the T/C (endpoint: mean survival time, dose: 150.0 mg/kg/injection, schedule: Q01DX009 (ip), vehicle: saline) of the same compound?
A: 98 % of control

Q: For `CC(C)CSCC1OC(n2cnc3c(N)nccc32)C(O)C1O` (stereo not drawn), which T/C (endpoint: mean survival time, dose: 3.13 mg/kg/injection, schedule: Q03HX024 (ip), vehicle: distilled water + Tween-80) is on record?
A: 100 % of control

Q: What about the T/C (endpoint: mean survival time, dose: 6.25 mg/kg/injection, schedule: Q03HX024 (ip), vehicle: distilled water + Tween-80) of the same compound?
A: 105 % of control

Q: What about the T/C (endpoint: mean survival time, dose: 12.5 mg/kg/injection, schedule: Q01DX005 (ip), vehicle: distilled water + Tween-80) of the same compound?
A: 107 % of control

Q: What about the T/C (endpoint: mean survival time, dose: 12.5 mg/kg/injection, schedule: Q03HX024 (ip), vehicle: distilled water + Tween-80) of the same compound?
A: 96 % of control

Q: What about the T/C (endpoint: mean survival time, dose: 25.0 mg/kg/injection, schedule: Q01DX005 (ip), vehicle: distilled water + Tween-80) of the same compound?
A: 115 % of control

Q: And the T/C (endpoint: mean survival time, dose: 25.0 mg/kg/injection, schedule: Q03HX024 (ip), vehicle: distilled water + Tween-80)?
A: 100 % of control

Q: And the T/C (endpoint: mean survival time, dose: 50.0 mg/kg/injection, schedule: Q01DX005 (ip), vehicle: distilled water + Tween-80)?
A: 100 % of control

Q: What about the T/C (endpoint: mean survival time, dose: 50.0 mg/kg/injection, schedule: Q03HX024 (ip), vehicle: distilled water + Tween-80) of the same compound?
A: 96 % of control

Q: And the T/C (endpoint: mean survival time, dose: 100.0 mg/kg/injection, schedule: Q01DX005 (ip), vehicle: distilled water + Tween-80)?
A: 88 % of control

Q: And the T/C (endpoint: mean survival time, dose: 100.0 mg/kg/injection, schedule: Q03HX024 (ip), vehicle: distilled water + Tween-80)?
A: 86 % of control
